From US20230150981A1, “N-HETEROARYLALKYL-2-(HETEROCYCLYL AND HETEROCYCLYLMETHYL) ACETAMIDE DERIVATIVES AS SSTR4 AGONISTS” (Takeda Pharmaceutical Compnay Limited, priority 2020, published 2023)

Legend:
SSTR1 = target: T1, SSTR1 (Homo sapiens, UniProt P30872); assay: SSTR1 I-125 somatostatin competition binding assay for selectivity versus SSTR1 (CHO-K1 membranes); details: competition with I-125 somatostatin, membranes from CHO-K1 overexpressing SSTR1; read-out: SSTR1 Binding pIC50 (converted)
T1 construct: purchased Perkin Elmer ES-520-M400UA; host or cells: CHO-K1 membranes
Method: SSTR1 I-125 Somatostatin Competition Binding Assay for Selectivity Versus SSTR1
Membranes from CHO-K1 cells overexpressing SSTR1 are purchased from Perkin Elmer (catalog number ES-520-M400UA). Test compounds are suspended in DMSO and then diluted in assay buffer (25 mM HEPES pH 7.4, 10 mM MgCl2, 1 mM CaCl2), 0.5% BSA) plus 0.4 nM I-125 labeled somatostatin (Perkin Elmer catalog number NEX389). Fifty μL of compound/I-125 somatostatin in assay buffer are added per well to 96-well poly-propylene plate. Then 10 μg of SSTR1 membranes in 50 μL assay buffer are added per well. The plate is incubated for 60 minutes at room temperature. FilterMat A filters (Perkin Elmer catalog number 1450-421) are pre-soaked in 0.5% PEI (Sigma catalog number P3143). The contents of the assay plate are transferred to filters with a TomTech harvester and washed 5 times with 20 mM HEPES, 100 mM NaCl. The filters are dried in a microwave oven then transferred to sample bag containing a scintillator sheet (Perkin Elmer catalog number 1450-441). The scintillator sheets are melted to the filters using a heat block. The filters are then read in a MicroBeta scintillation counter. Binding Ki curves are generated using Activity Base for Screening Data Management and the results are reported as pIC50.

SSTR4 [1] = target: T2, SSTR4 (Homo sapiens, UniProt P31391); assay: SSTR4 I-125 somatostatin competition binding assay (CHO-K1 membranes); details: competition with I-125 somatostatin, membranes from CHO-K1 overexpressing SSTR4; read-out: SSTR4 Binding pIC50 (converted)
T2 construct: host or cells: CHO-K1
Method: SSTR4 I-125 Somatostatin Competition Binding Assay
Membranes from CHO-K1 cells overexpressing SSTR4 are purchased from Perkin Elmer (catalog number ES-524-M400UA). Test compounds are suspended in DMSO and then diluted in assay buffer (25 mM HEPES pH 7.4, 10 mM MgCl2, 1 mM CaCl2), 0.5% BSA) plus 0.2 nM I-125 labeled somatostatin (Perkin Elmer catalog number NEX389). Fifty μL of compound/I-125 somatostatin in assay buffer are added per well to 96-well poly-propylene plate. Then 1 μg of SSTR4 membranes in 50 μL assay buffer are added per well. The Plate is incubated for 60 minutes at room temperature. FilterMat A filters (Perkin Elmer catalog number 1450-421) are pre-soaked in 0.5% PEI (Sigma catalog number P3143). The contents of the assay plate are transferred to filters with a TomTech harvester and washed 5 times with 20 mM HEPES, 100 mM NaCl. The filters are dried in a microwave oven then transferred to sample bag containing a scintillator sheet (Perkin Elmer catalog number 1450-441). The scintillator sheets are melted to filters using a heat block. The filters are then read in a MicroBeta scintillation counter. Binding Ki curves are generated using Activity Base for Screening Data Management and the results are reported as pIC50.

SSTR4 [2] = target: T2, SSTR4; assay: Inhibition of forskolin stimulated cAMP in CHO-K1 cells overexpressing SSTR4; assay type: cell-based; details: read-out: SSTR4 Activity pEC50 (converted)
Summary of the method: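 CHO-K1 cells overexpressing SSTR4 treated 30 min at room temperature with compound in Krebs Ringer buffer containing 0.5% BSA, 300 μM IBMX and 350 nM forskolin. Intracellular cAMP measured by HTRF LANCE Ultra (665/615 nm); pEC50 values reported.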

T2 sequence (P31391 whole entry): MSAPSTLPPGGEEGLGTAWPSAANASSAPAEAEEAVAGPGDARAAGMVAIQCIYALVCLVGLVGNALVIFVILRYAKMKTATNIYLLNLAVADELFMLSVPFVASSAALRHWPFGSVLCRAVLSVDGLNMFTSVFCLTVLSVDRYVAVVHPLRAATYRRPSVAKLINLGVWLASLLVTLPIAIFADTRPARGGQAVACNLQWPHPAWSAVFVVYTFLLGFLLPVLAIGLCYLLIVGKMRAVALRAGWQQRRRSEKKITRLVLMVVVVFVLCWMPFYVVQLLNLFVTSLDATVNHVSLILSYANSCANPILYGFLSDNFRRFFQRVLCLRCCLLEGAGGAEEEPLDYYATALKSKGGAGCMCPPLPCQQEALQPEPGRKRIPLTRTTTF
T1 sequence (P30872 whole entry): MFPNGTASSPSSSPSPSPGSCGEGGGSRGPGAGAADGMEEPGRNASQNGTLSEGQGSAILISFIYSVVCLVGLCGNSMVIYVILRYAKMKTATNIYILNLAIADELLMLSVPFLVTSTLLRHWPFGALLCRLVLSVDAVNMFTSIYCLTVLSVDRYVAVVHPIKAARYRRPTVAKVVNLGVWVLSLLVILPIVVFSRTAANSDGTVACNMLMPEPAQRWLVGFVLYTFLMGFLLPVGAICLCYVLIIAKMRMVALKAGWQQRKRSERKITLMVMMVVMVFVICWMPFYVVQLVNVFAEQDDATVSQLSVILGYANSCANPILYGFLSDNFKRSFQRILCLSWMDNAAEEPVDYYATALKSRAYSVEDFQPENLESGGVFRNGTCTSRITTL

Row | Compound | IC50 (SSTR1) | IC50 (SSTR4 [1]) | EC50 (SSTR4 [2])
1 | CN1CCC[C@@H]1CC(=O)NC(C)(C)c1nn(C)c2ccccc12 [Example 3, (R)-N-(2-(1-methyl-1H-indazol-3-yl)propan-2-yl)-2-(1-methylpyrrolidin-2-yl)acetamide] | 5010 nM | 200 nM | 25.1 nM
2 | O=C(CCN1CCCC1)N[C@H](c1cccc(Cl)c1)C(F)F (single isomer, unassigned) [Example 198] | 7940 nM | 20 nM | 6.31 nM
3 | Cc1c(F)cccc1C(C)(C)NC(=O)CCN1CCC1 [Example 166, 3-(azetidin-1-yl)-N-(2-(3-fluoro-2-methylphenyl)propan-2-yl)propanamide] | 39800 nM | 50.1 nM | 12.6 nM
4 | Cc1c(Cl)cccc1C(C)(C)NC(=O)C[C@@H]1CCCN1C [Example 118, (S)-N-(2-(3-chloro-2-methylphenyl)propan-2-yl)-2-(1-methylpyrrolidin-2-yl)acetamide] | 39800 nM | 398 nM | 79.4 nM
5 | CC(C)(NC(=O)CC1NCCC1(F)F)c1nccc2ccccc12 (stereo not drawn) [Example 100, 2-(3,3-difluoropyrrolidin-2-yl)-N-(2-(isoquinolin-1-yl)propan-2-yl)acetamide] | > 50100 nM | 1000 nM | 200 nM
6 | O=C(CCN1CCC1)NC(c1ccccc1F)C(F)(F)F (single isomer, unassigned) [Example 209] | 20000 nM | 126 nM | 1.26 nM
7 | C[C@@H](CN1CCC1)C(=O)NC1(c2ccccc2F)CC1 (single isomer, unassigned) [Example 151] | 7940 nM | 100 nM | 7.94 nM
8 | C[C@H](NC(=O)CC1CCCCN1C)c1ccc(Cl)cc1 (stereo partly drawn) [Example 60, N-((S)-1-(4-chlorophenyl)ethyl)-2-(1-methylpiperidin-2-yl)acetamide] | 25100 nM | 501 nM | 100 nM
9 | Cc1ccc([C@H](CF)NC(=O)CCN2CCC2)cc1 (single isomer, unassigned) [Example 175] | 31600 nM | 158 nM | 20 nM
10 | Cc1cccc(C(C)(C)NC(=O)CCN2CCC2)c1Cl [Example 161, 3-(azetidin-1-yl)-N-(2-(2-chloro-3-methylphenyl)propan-2-yl)propanamide] | 6310 nM | 50.1 nM | 3.98 nM
11 | Cc1cccnc1OCC(C)(C)NC(=O)C[C@@H]1CCCN1C [Example 47, (S)-N-(2-methyl-1-((3-methylpyridin-2-yl)oxy)propan-2-yl)-2-(1-methylpyrrolidin-2-yl)acetamide] | 25100 nM | 398 nM | 12.6 nM
12 | CC(CN1CCCC1)C(=O)NC(C)(C)c1ccccc1Cl (stereo not drawn) [Example 135, N-(2-(2-chlorophenyl)propan-2-yl)-2-methyl-3-(pyrrolidin-1-yl)propanamide] | 15800 nM | 158 nM | 10 nM
13 | Cc1ccccc1C(C)(C)NC(=O)[C@H](C)CN1CCC1 (single isomer, unassigned) [Example 140] | 12600 nM | 50.1 nM | 6.31 nM
14 | CC[C@@H](CN1CCC1)C(=O)N[C@H](c1ccc(F)cc1)C(F)F [Example 204, (S)-2-(azetidin-1-ylmethyl)-N-((R)-2,2-difluoro-1-(4-fluorophenyl)ethyl)butanamide] | 631 nM | 3.16 nM | 0.1 nM
15 | O=C(CCN1CCC1)NC(c1cccc(Cl)c1)C(F)(F)F (single isomer, unassigned) [Example 192] | 31600 nM | 126 nM | 15.8 nM
16 | Cc1cccc2c(C(C)(C)NC(=O)CC3CCCN3C)nn(C)c12 (stereo not drawn) [Example 1, N-(2-(1,7-dimethyl-1H-indazol-3-yl)propan-2-yl)-2-(1-methylpyrrolidin-2-yl)acetamide] | 10000 nM | 63.1 nM | 6.31 nM
17 | CC(C)(NC(=O)CCN1CCCC1)c1nccc2ccccc12 [Example 5, N-(2-(isoquinolin-1-yl)propan-2-yl)-3-(pyrrolidin-1-yl)propanamide] | 5010 nM | 50.1 nM | 3.98 nM
18 | CC(C)[C@@H](CN1CCC1)C(=O)N[C@H](c1cccc(F)c1)C(F)F [Example 194, (S)-2-(azetidin-1-ylmethyl)-N-((R)-2,2-difluoro-1-(3-fluorophenyl)ethyl)-3-methylbutanamide] | 631 nM | 2.51 nM | 0.794 nM
19 | O=C(CCN1CCC1)N[C@H](c1ccccc1)C(F)F (single isomer, unassigned) [Example 201] | 25100 nM | 63.1 nM | 31.6 nM
20 | O=C(CCN1CCC1)N[C@H](c1cc(F)ccc1F)C(F)F (single isomer, unassigned) [Example 169] | 39800 nM | 316 nM | 2.51 nM
21 | O=C(CCN1CCC1)NC(c1cc(F)ccc1F)C(F)F (stereo not drawn) [Example 167, 3-(azetidin-1-yl)-N-(1-(2,5-difluorophenyl)-2,2-difluoroethyl)propanamide] | > 50100 nM | 251 nM | 25.1 nM
22 | CCN1CCCC1CC(=O)NC(C)(C)c1nccc2occc12 (stereo not drawn) [Example 27, 2-(1-ethylpyrrolidin-2-yl)-N-(2-(furo[3,2-c]pyridin-4-yl)propan-2-yl)acetamide] | > 50100 nM | 501 nM | 31.6 nM
23 | CC[C@H](CN1CCC1)C(=O)NC(C)(C)c1cccc(F)c1 (single isomer, unassigned) [Example 184] | 2000 nM | 15.8 nM | 0.631 nM
24 | Cc1cccc(C(C)(C)NC(=O)C[C@H]2CCCN2C)c1Cl [Example 91, (R)-N-(2-(2-chloro-3-methylphenyl)propan-2-yl)-2-(1-methylpyrrolidin-2-yl)acetamide] | 25100 nM | 398 nM | 39.8 nM
25 | Cc1cccc(C(C)(C)NC(=O)C[C@@H]2CCCN2C)c1C [Example 92, (S)-N-(2-(2,3-dimethylphenyl)propan-2-yl)-2-(1-methylpyrrolidin-2-yl)acetamide] | > 50100 nM | 1000 nM | 63.1 nM
26 | CN1CCC[C@H]1CC(=O)NC(C)(C)COc1ncccc1C(F)(F)F [Example 48, (S)-N-(2-methyl-1-((3-(trifluoromethyl)pyridin-2-yl)oxy)propan-2-yl)-2-(1-methylpyrrolidin-2-yl)acetamide] | 15800 nM | 316 nM | 25.1 nM
27 | C[C@@H](CN1CCC1)C(=O)NC(C)(C)c1ccccc1Cl (single isomer, unassigned) [Example 134] | 6310 nM | 50.1 nM | 1.26 nM
28 | C[C@H](CN1CCC1)C(=O)N[C@H](c1ccccc1)C(F)F (single isomer, unassigned) [Example 181] | 1580 nM | 6.31 nM | 0.158 nM
29 | Cc1cccnc1OCC(C)(C)NC(=O)CC12CCCN1CCC2 [Example 77, N-(2-methyl-1-((3-methylpyridin-2-yl)oxy)propan-2-yl)-2-(tetrahydro-1H-pyrrolizin-7a(5H)-yl)acetamide] | > 50100 nM | 3160 nM | 79.4 nM
30 | Cc1cnc(C(C)(C)NC(=O)CC2CCCCN2C)c2ccccc12 (stereo not drawn) [Example 42, N-(2-(4-methylisoquinolin-1-yl)propan-2-yl)-2-(1-methylpiperidin-2-yl)acetamide] | 631 nM | 3.16 nM | 0.794 nM
